Reference: PMC10041537, “Molecular origins of mutational spectra produced by the environmental carcinogen N-nitrosodimethylamine and SN1 chemotherapeutic agents” (NAR Cancer, 2023)

Tested on: liver, kidney, lung
Assay: Body and organ weights, macroscopic and histological analysis 10 weeks post NDMA treatment
Type: in vivo, gptΔ C57BL/6J mice
Procedure: Most experiments utilized C57BL/6J gptΔ transgenic mice ([49],[50]), a gift from T. Nohmi. Some experiments used RaDR^R/R;gpt^g/g;Mgmt^−/− mice, which were created by crossing RaDR^R/R;gpt^g/gmice ([37]) with Mgmt^−/− mice ([51]). NDMA was synthesized and characterized as previously described ([52]) (Fig. S1). […] The first dose (3.5 mg/kg in 10 μl) was administered at 8 days of age, and the second dose (7 mg/kg in 20 μl) was administered at 15 days of age. Vehicle treated mice were administered equivalent volumes of saline. Mice were euthanized at ten weeks post-injection by CO2 inhalation. Both male and female mice were used in all experimental groups (n = 5) in all mouse experiments.
Sections of kidney and liver from mice ten weeks post treatment were fixed in 10% buffered formalin, embedded in paraffin, and sectioned at 5 μm thickness, stained with hematoxylin and eosin (H&E) by the MIT Division of Comparative Medicine Comparative Pathology Laboratory. H&E-stained sections of liver and kidney were scored by a Board-certified veterinary pathologist blinded to sample identity. Sections of liver were evaluated for the presence of hepatocellular degeneration (cell swelling with cytoplasmic alteration), fibrosis, and lipidosis using distribution-based ordinal scoring: 0 = normal, 1, uncommon detection in < 5% of liver fields (200×); 2, detectable in up to 5–20% of liver fields; 3, detectable in up to 20–65% of liver fields; 4, detectable in >65% of liver fields. The following criteria were used for scoring hepatic inflammation, necrosis, nuclear enlargement (karyomegaly), extramedullary hematopoiesis, Kupffer cell hyperplasia, Ito cell hyperplasia, and bile duct hyperplasia: 0 = normal; 1 = minimal (1–5 foci), 2 = mild (6–12 foci), 3 = moderate (13–18 foci), 4 = severe (>18 foci) (adapted from ([54])). A total inflammation score for each liver was generated by combining individual scores of portal, midzonal, and centrilobular inflammation from each submitted section. Sections of kidney were evaluated for the presence of inflammation, glomerulonephropathy, tubular necrosis, tubular degeneration, tubular regeneration, tubular casts and interstitial fibrosis. Slides were examined using an Olympus BX41 microscope attached with an iKona digital camera and photographed.

With `CN(C)N=O` [NDMA, N-nitrosodimethylamine] the “macroscopic changes in organs” value (10 weeks post treatment) was “not observed”, the “liver histology: hepatocellular degeneration” value (H&E, P = 0.0079) was “multifocal areas of periacinar (centrilobular to midzonal) hepatocellular degeneration” and the “liver histology: nuclear enlargement” value (H&E, P = 0.0079) was “karyomegaly”. The “body weights vs vehicle controls” value (at euthanasia, 10 weeks post treatment) was “no difference”, the lung-to-body weight ratio (females) was “increased” and the kidney-to-body weight ratio (males) was “increased”. For the same molecule, the liver-to-body weight ratio (males) was “decreased significantly”.
